Experimental data published in the OligoGym collection.
After the bases stand the sugars from the 5' end (letter, count) and the backbone: PS all phosphorothioate, else s phosphorothioate and o phosphodiester by linkage. Methylation of C is not given here. e = 2'-O-(2-methoxyethyl) (MOE); k = constrained ethyl (cEt); d = 2'-deoxy (DNA)

Biological target: SOD1
Details: ASO

## TCTTCATTTCCACCTTT (sugars e3 k2 d7 k2 e3, PS)
HepG2, 3 µM
  target mRNA inhibition: 31%

## TCTTCCAAGTGATCATAAAT (sugars e5 d10 e5, PS)
HepG2, 5 µM
  target mRNA inhibition: 12%

## TGATCATAAATCAGTTT (sugars e2 k2 d9 k2 e2, PS)
HepG2, 5 µM
  target mRNA inhibition: 38%

## TGATGCAATGGTCTCCTGAG (sugars e5 d10 e5, PS)
HepG2, 5 µM
  target mRNA inhibition: 1%

## TGATTTAAGTCTGGCAA (sugars e2 k2 d8 k2 e3, PS)
HepG2, 5 µM
  target mRNA inhibition: 52%

## TGCCCTGCACTGGGCCGTCG (sugars e5 d10 e5, PS)
HepG2, 4 µM
  target mRNA inhibition: 38%

## TGCCTCTCTTCATCCTTTGG (sugars e5 d10 e5, PS)
HepG2, 3 µM
  target mRNA inhibition: 32%

## TGGACCACCAGTGTGCGGCC (sugars e5 d10 e5, PS)
HepG2, 5 µM
  target mRNA inhibition: 28%

## TGGCAAAATACAGGTCA (sugars e3 k2 d7 k2 e3, PS)
HepG2, 3 µM
  target mRNA inhibition: 26%

## TGTGATTTAAGTCTGGC (sugars e2 k2 d9 k2 e2, PS)
HepG2, 5 µM
  target mRNA inhibition: 58%

## TGTTTAATGTTTATCA (sugars kekeddddddddekek, linkages s1 o3 s8 o1 s2)
A431, 0.12 µM
  target mRNA inhibition: 6%
A431, 0.6 µM
  target mRNA inhibition: 14%
A431, 3 µM
  target mRNA inhibition: 15%
A431, 15 µM
  target mRNA inhibition: 32%
HepG2, 0.222 µM
  target mRNA inhibition: 42%
HepG2, 0.667 µM
  target mRNA inhibition: 54%
HepG2, 2 µM
  target mRNA inhibition: 69%
HepG2, 6 µM
  target mRNA inhibition: 86%

## TGTTTATCAGGATACATTTC (sugars e5 d10 e5, PS)
HepG2, 5 µM
  target mRNA inhibition: 52%

## TTAAGTCTGGCAAAATA (sugars e3 k2 d7 k2 e3, PS)
HepG2, 3 µM
  target mRNA inhibition: 2%

## TTAATACCCATCTGTGA (sugars e2 k2 d8 k2 e3, PS)
HepG2, 5 µM
  target mRNA inhibition: 28%

## TTAATGTTTATCAGGATA (sugars e5 d8 e5, linkages s1 o3 s9 o2 s2)
A431, 0.12 µM
  target mRNA inhibition: 18%
A431, 0.6 µM
  target mRNA inhibition: 7%
A431, 3 µM
  target mRNA inhibition: 11%
A431, 15 µM
  target mRNA inhibition: 9%
HepG2, 0.222 µM
  target mRNA inhibition: 0%
HepG2, 0.667 µM
  target mRNA inhibition: 17%
HepG2, 2 µM
  target mRNA inhibition: 47%
HepG2, 6 µM
  target mRNA inhibition: 72%

## TTAATGTTTATCAGGATACA (sugars e5 d10 e5, PS)
HepG2, 5 µM
  target mRNA inhibition: 34%

## TTACACCACAAGCCAAACGA (sugars e5 d10 e5, PS)
HepG2, 5 µM
  target mRNA inhibition: 24%

## TTAGTTTGAATTTGGAT (sugars e2 k2 d8 k2 e3, PS)
HepG2, 5 µM
  target mRNA inhibition: 31%

## TTAGTTTGAATTTGGAT (sugars e2 k2 d9 k2 e2, PS)
HepG2, 5 µM
  target mRNA inhibition: 16%

## TTATTCACAGGCTTGAA (sugars e2 k2 d8 k2 e3, PS)
HepG2, 5 µM
  target mRNA inhibition: 26%

## TTATTGGGCGATCCCAA (sugars e2 k2 d8 k2 e3, PS)
HepG2, 4 µM
  target mRNA inhibition: 41%

## TTCATTTCCACCTTTGC (sugars e3 k2 d7 k2 e3, PS)
HepG2, 3 µM
  target mRNA inhibition: 33%

## TTCCCCACACCTTCAC (sugars kekeddddddddekek, linkages s1 o3 s8 o1 s2)
A431, 0.12 µM
  target mRNA inhibition: 4%
A431, 0.6 µM
  target mRNA inhibition: 12%
A431, 3 µM
  target mRNA inhibition: 5%
A431, 15 µM
  target mRNA inhibition: 12%
HepG2, 0.222 µM
  target mRNA inhibition: 6%
HepG2, 0.667 µM
  target mRNA inhibition: 16%
HepG2, 2 µM
  target mRNA inhibition: 20%
HepG2, 6 µM
  target mRNA inhibition: 59%

## TTCTACAGCTAGCAGGA (sugars e2 k2 d8 k2 e3, PS)
HepG2, 0.1875 µM
  target mRNA inhibition: 18%
HepG2, 0.75 µM
  target mRNA inhibition: 48%
HepG2, 3 µM
  target mRNA inhibition: 66%
HepG2, 4 µM
  target mRNA inhibition: 74%
HepG2, 12 µM
  target mRNA inhibition: 86%

## TTCTACAGCTAGCAGGA (sugars e3 k2 d7 k2 e3, PS)
HepG2, 3 µM
  target mRNA inhibition: 31%

## TTCTCACTACAGGTACT (sugars e2 k2 d8 k2 e3, PS)
HepG2, 5 µM
  target mRNA inhibition: 26%

## TTCTTTTAATAGCCTCATAA (sugars e5 d10 e5, PS)
HepG2, 5 µM
  target mRNA inhibition: 5%

## TTGGATTCTTTTAATAG (sugars e2 k2 d9 k2 e2, PS)
HepG2, 5 µM
  target mRNA inhibition: 8%

## TTGGGCGATCCCAATTA (sugars e2 k2 d8 k2 e3, PS)
HepG2, 4 µM
  target mRNA inhibition: 14%

## TTTAATGTTTATCAGGAT (sugars e5 d8 e5, linkages s1 o3 s9 o2 s2)
A431, 0.12 µM
  target mRNA inhibition: 13%
A431, 0.6 µM
  target mRNA inhibition: 19%
A431, 3 µM
  target mRNA inhibition: 22%
A431, 15 µM
  target mRNA inhibition: 7%
HepG2, 0.222 µM
  target mRNA inhibition: 10%
HepG2, 0.667 µM
  target mRNA inhibition: 24%
HepG2, 2 µM
  target mRNA inhibition: 28%
HepG2, 6 µM
  target mRNA inhibition: 53%
